A value given as a limit tells only on which side of the number the result lay.

For data set [1], the target named is CYP3A4 (Homo sapiens, UniProt P08684). As to the kind of experiment: Cytochrome P450 (CYP450) Inhibition Assay, CYP3A4 (Vivid fluorescence, BOMCC substrate). To be noted: human, P450 Baculosomes (recombinant CYP3A4), probe BOMCC (Vivid substrate).
Data set [2] deals with sodium channel. Put plainly: Guanidine influx assay (14C-guanidine radiotracer flux, in vitro). The format is cell-based, human or rat. As to conditions: guanidine influx assay using a known cell line that expresses a sodium channel; activity level class. In short, it runs like this: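 Radiotracer read-out: intracellular 14C-guanidine counted after washing with guanidine-supplemented low-sodium buffer. Cells expressing human or rat channels get test agent plus aconitine activator and tracer, incubated at ambient temperature. Dilution series centred on 1 μM; IC50 by sigmoidal dose-response fit.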

Sequence of CYP3A4 (P08684 whole entry): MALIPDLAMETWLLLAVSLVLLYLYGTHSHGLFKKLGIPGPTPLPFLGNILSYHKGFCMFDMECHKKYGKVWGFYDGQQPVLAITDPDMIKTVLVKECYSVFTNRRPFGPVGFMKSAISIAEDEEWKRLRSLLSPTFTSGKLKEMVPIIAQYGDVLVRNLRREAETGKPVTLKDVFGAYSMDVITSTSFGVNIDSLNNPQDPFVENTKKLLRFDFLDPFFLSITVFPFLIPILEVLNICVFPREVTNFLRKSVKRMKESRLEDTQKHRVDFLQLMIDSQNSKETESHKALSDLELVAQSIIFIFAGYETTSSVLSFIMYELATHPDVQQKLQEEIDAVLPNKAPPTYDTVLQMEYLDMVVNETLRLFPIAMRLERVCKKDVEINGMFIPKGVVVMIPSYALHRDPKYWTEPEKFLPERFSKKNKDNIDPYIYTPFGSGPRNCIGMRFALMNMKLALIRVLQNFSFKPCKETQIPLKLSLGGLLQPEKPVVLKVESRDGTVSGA

What is called inhibition is the share of the control response that was lost under treatment. As usually defined, the IC50 is the point on the concentration scale where inhibition reaches its midpoint. Broadly, the melting point is the temperature, or range, at which the solid turns liquid. In the case of `CSc1ccc(CN2C(=O)C3(COc4cc5c(cc43)OCO5)c3ccccc32)cc1` (stereo not drawn) [Example 4.79, 1′-[4-(methylsulfanyl)benzyl]spiro[furo[2,3-f][1,3]benzodioxole-7,3′-indol]-2′(1′H)-one], the melting point lay within 128 to 130 °C. The inhibition at 10 µM in data set [1] was over 50%. The IC50 in data set [2] is 1 to 100 nM.
Take `N#CCCN1C(=O)C2(COc3cc4c(cc32)OCO4)c2ccccc21` (stereo not drawn) [Example 4.80, 3-(2′-oxospiro[furo[2,3-f][1,3]benzodioxole-7,3′-indol]-1′(2′H)-yl)propanenitrile]: the melting point lay in the range of 200 to 202 °C. Besides, in data set [1], the inhibition at 10 µM was over 50%. The IC50 in data set [2] is 1 to 100 nM.
Take `O=C1N(Cc2cnc(Br)s2)c2ccccc2C12COc1cc3c(cc12)OCO3` (stereo not drawn) [Example 4.81, 1′-[(2-bromo-1,3-thiazol-5-yl)methyl]spiro[furo[2,3-f][1,3]benzodioxole-7,3′-indol]-2′(1′H)-one]: the melting point was in the range of 215 to 217 °C. Besides, in data set [1], the inhibition at 10 µM is over 50%. Further, the concentration for half-maximal inhibition (IC50) in data set [2] lay within 1 to 100 nM.
In turn, `Nc1nc(C(F)(F)F)c(CN2C(=O)C3(COc4cc5c(cc43)OCO5)c3ccccc32)s1` (stereo not drawn) [Example 4.82, 1′-{[2-amino-4-(trifluoromethyl)-1,3-thiazol-5-yl]methyl}spiro[furo[2,3-f][1,3]benzodioxole-7,3′-indol]-2′(1′H)-one] yielded a melting point of 165 to 167 °C. In addition, in data set [1], the inhibition at 10 µM was over 50%. For the same molecule, the half-maximal inhibitory concentration (IC50) in data set [2] was 100 to 1000 nM.
The matching figures for `COc1cc2c(cc1F)OCC21C(=O)N(Cc2ccc(C(F)(F)F)o2)c2ccccc21` (stereo not drawn) [Example 4.83, 6-fluoro-5-methoxy-1′-{[5-(trifluoromethyl)furan-2-yl]methyl}spiro[1-benzofuran-3,3′-indol]-2′(1′H)-one]: 132 to 134 °C, over 50% and 1000 to 10000 nM.
For `N#CCN1C(=O)C2(COc3cc4c(cc32)OCO4)c2c(Cl)cccc21` (stereo not drawn) [Example 4.84], the melting point was 122 to 123 °C. In addition, the inhibition at 10 µM in data set [1] is under 50%. In addition, the half-maximal inhibitory concentration (IC50) in data set [2] lay within 100 to 1000 nM.
For `Nc1nc(CN2C(=O)C3(COc4cc5c(cc43)OCO5)c3ccccc32)cs1` (stereo not drawn) [Example 4.85, 1′-[(2-amino-1,3-thiazol-4-yl)methyl]spiro[furo[2,3-f][1,3]benzodioxole-7,3′-indol]-2′(1′H)-one] the same measures were 230 to 235 °C, over 50% and 100 to 1000 nM.
The matching figures for `O=C1N(Cc2ccc(Cl)s2)c2cccc(Br)c2C12COc1cc3c(cc12)OCO3` (stereo not drawn) [Example 4.86, 4′-bromo-1′-[1(5-chloro-2-thienyl)methyl]spiro[furo[2,3-f][1,3]benzodioxole-7,3′-indol]-2′(1′H)-one]: 85 to 87 °C, over 50% and 1 to 100 nM.
Consider `N#Cc1cccc2c1N(Cc1ccc(Cl)s1)C(=O)C21COc2cc3c(cc21)OCO3` (stereo not drawn) [Example 4.87, 1′-[(5-chloro-2-thienyl)methyl]-2′-oxo-1′,2′-dihydrospiro[furo[2,3-f][1,3]benzodioxole-7,3′-indole]-7′-carbonitrile], for which the melting point lay within 192 to 193 °C. For the same molecule, the inhibition at 10 µM in data set [1] is over 50%. In data set [2], the IC50 is 1 to 100 nM.
The matching figures for `CC(C)c1nc(CN2C(=O)C3(COc4cc5c(cc43)OCO5)c3cccc(C#N)c32)cs1` (stereo not drawn) [Example 4.88, 1′-[(2-isopropyl-1,3-thiazol-4-yl)methyl]-2′-oxo-1′,2′-dihydrospiro[furo[2,3-f][1,3]benzodioxole-7,3′-indole]-7′-carbonitrile]: 162 to 163 °C, over 50% and 1 to 100 nM.
Molecule `O=C1N(Cc2ccc(Cl)s2)c2cccc(Cl)c2C12COc1cc3c(cc12)OCO3` (stereo not drawn) [Example 4.89, 4′-chloro-1′-[(5-chloro-2-thienyl)methyl]spiro[furo[2,3-f][1,3]benzodioxole-7,3′-indol]-2′(1′H)-one] had a melting point of 167 to 168 °C. In addition, the inhibition at 10 µM in data set [1] is over 50%. In data set [2], the IC50 was in the range of 1 to 100 nM.
The matching figures for `CC(C)c1nc(CN2C(=O)C3(COc4cc5c(cc43)OCO5)c3c(Cl)cccc32)cs1` (stereo not drawn) [Example 4.91, 4′-chloro-1′-[(2-isopropyl-1,3-thiazol-4-yl)methyl]spiro[furo[2,3-f][1,3]benzodioxole-7,3′-indol]-2′(1′H)-one]: 147 to 148 °C, over 50% and 1 to 100 nM.
`CC(C)c1nc(CN2C(=O)C3(COc4cc5c(cc43)OCO5)c3c(-c4ccc(N(C)C)nc4)cccc32)cs1` (stereo not drawn) [Example 4.92, 4′-[6-(dimethylamino)pyridin-3-yl]-1′-{[2-(1-methylethyl)-1,3-thiazol-4-yl]methyl}spiro[furo[2,3-f][1,3]benzodioxole-7,3′-indol]-2′(1′H)-one]: the melting point lay within 164 to 165 °C. In addition, the inhibition at 10 µM in data set [1] is over 50%. Also, the IC50 in data set [2] is 100 to 1000 nM.
For `O=C1N(Cc2ccccc2CF)c2ccccc2C12COc1cc3c(cc12)OCCO3` (stereo not drawn) [Example 4.93] the same measures were 188 to 190 °C, over 50% and 1 to 100 nM.
The matching figures for `N#Cc1cccc(CN2C(=O)C3(COc4cc5c(cc43)OCCO5)c3ccccc32)c1` (stereo not drawn) [Example 4.94, 3-[(2′-oxo-2,3-dihydrospiro[furo[2,3-g][1,4]benzodioxine-8,3′-indol]-1′(2′H)-yl)methyl]benzonitrile]: 173 to 178 °C, over 50% and 1 to 100 nM.
For `COc1cc(CN2C(=O)C3(COc4cc5c(cc43)OCCO5)c3ccccc32)ccc1F` (stereo not drawn) [Example 4.95, 1-(4-fluoro-3-methoxybenzyl)-2,3-dihydrospiro[furo[2,3-g][1,4]benzodioxine-8,3′-indol]-2′(1′H)-one] the same measures were 161 to 163 °C, over 50% and 1 to 100 nM.
Take `N#Cc1ccc(CN2C(=O)C3(COc4cc5c(cc43)OCCO5)c3ccccc32)cc1` (stereo not drawn) [Example 4.96, 4-[(2′-oxo-2,3-dihydrospiro[furo[2,3-g][1,4]benzodioxine-8,3′-indol]-1′(2′H)-yl)methyl]benzonitrile]: the melting point lay in the range of 69 to 72 °C. In addition, the inhibition at 10 µM in data set [1] is over 50%. Besides, the IC50 in data set [2] was in the range of 1 to 100 nM.
The matching figures for `O=C1N(Cc2ccc(-c3ccno3)cc2)c2ccccc2C12COc1cc3c(cc12)OCCO3` (stereo not drawn) [Example 4.97, 1′-(4-isoxazol-5-ylbenzyl)-2,3-dihydrospiro[furo[2,3-g][1,4]benzodioxine-8,3′-indol]-2′(1′H)-one]: 209 to 212 °C, under 50% and 1 to 100 nM.
In turn, `Cc1noc2cc3c(cc12)C1(CO3)C(=O)N(Cc2ccc(-c3ccno3)cc2)c2ccccc21` (stereo not drawn) [Example 4.99, 1′-(4-isoxazol-5-ylbenzyl)-3-methylspiro[furo[3,2-f][1,2]benzisoxazole-5,3′-indol]-2′(1′H)-one] returned a melting point of 192 to 194 °C. The inhibition at 10 µM in data set [1] was under 50%. Moreover, in data set [2], the IC50 was in the range of 100 to 1000 nM.
`O=C1N(Cc2ccc(F)cn2)c2ccccc2C12COc1cc3c(cc12)OCCO3` (stereo not drawn) [Example 4.100, 1-[(5-fluoropyridin-2-yl)methyl]-2,3-dihydrospiro[furo[2,3-g][1,4]benzodioxine-8,3′-indol]-2′(1′H)-one]: the melting point is 174 to 176 °C. In addition, in data set [1], the inhibition at 10 µM is under 50%. For the same molecule, the 50% inhibitory concentration (IC50) in data set [2] is 1 to 100 nM.
For `O=C1N(Cc2ncccc2F)c2ccccc2C12COc1cc3c(cc12)OCCO3` (stereo not drawn) [Example 4.101, 1-[(3-fluoropyridin-2-yl)methyl]-2,3-dihydrospiro[furo[2,3-g][1,4]benzodioxine-8,3′-indol]-2′(1′H)-one] the same measures were 247 to 249 °C, under 50% and 1 to 100 nM.
Consider `O=C1N(Cc2ccccn2)c2cccc(-c3cnc4ccccc4c3)c2C12COc1cc3c(cc12)OCCO3` (stereo not drawn) [Example 4.102, 1-(pyridin-2-ylmethyl)-4′-quinolin-3-yl-2,3-dihydrospiro[furo[2,3-g][1,4]benzodioxine-8,3′-indol]-2′(1′H)-one], for which the melting point was 228 to 230 °C. Moreover, the inhibition at 10 µM in data set [1] was over 50%. Also, in data set [2], the IC50 was 100 to 1000 nM.
The matching figures for `O=C1N(Cc2ncc(F)cc2F)c2ccccc2C12COc1cc3c(cc12)OCCO3` (stereo not drawn) [Example 4.104, 1-[(3,5-difluoropyridin-2-yl)methyl]-2,3-dihydrospiro[furo[2,3-g][1,4]benzodioxine-8,3′-indol]-2′(1′H)-one]: 220 to 222 °C, under 50% and 1 to 100 nM.
For `N#Cc1ccc2c(c1)OCC21C(=O)N(Cc2ccccn2)c2ccccc21` (stereo not drawn) [Example 4.105, 2′-oxo-1′-(pyridin-2-ylmethyl)-1′,2′-dihydrospiro[1-benzofuran-3,3′-indole]-6-carbonitrile] the same measures were 151 to 153 °C, under 50% and 1000 to 10000 nM.
The matching figures for `N#Cc1cccc(CN2C(=O)[C@@]3(COc4cc5c(cc43)OCCO5)c3ccccc32)c1` [Example 4.106, 3-{[(8S)-2′-oxo-2,3-dihydrospiro[furo[2,3-g][1,4]benzodioxine-8,3′-indol]-1′(2′H)-yl]methyl}benzonitrile]: 94 to 96 °C, under 50% and 1 to 100 nM.

Source of the values: patent US8263606B2 (Xenon Pharmaceuticals Inc., priority 2008, dated 2012).
